Where “and” joins values, the source holds several entries; their conditions need not be identical. Equal values may be shown once. Records with an inconclusive call do not appear. The calls were made as follows: active = survival T/C of 150% or more; inactive = T/C below 125% in these data. Numbered stars: 1 amine (or outer) side, 2 acyl side, 3 side chain; on linkers, the order of the positions; unused ones are H or OH. Bridge positions count the residues as written; N and C are the ends. Square brackets hold non-standard residues; d marks the D form. Peptide text beside a SMILES is read from it. I, II: the chains in the order shown. Actinocin(9to1) = Cc1c2oc3c(C)ccc(C(=O)[*:1])c3nc-2c(C(=O)[*:2])c(N)c1=O; aThr = C[C@H](O)[C@H](N)C(=O)O; NMeV = CN[C@H](C(=O)O)C(C)C; Sar = CNCC(=O)O
Test system: BDF1 mice, M5076 sarcoma s.c., survival/tumor T/C
Test: NCI In Vivo Anticancer Drug Screen. Data for tumor model Sarcoma M5076 (subcutaneous) in B6D2F1 (BDF1) mice
Method: The antitumor activity of compounds was measured in mice bearing transplantable tumors. Survival or tumor size were measured and the results are expressed as the measurement made in the treated group (T) divided by the measurement made in the vehicle treated control group (C). The tumor model used in this assay is Sarcoma M5076 (subcutaneous) in B6D2F1 (BDF1) mice

Measured: T/C

COc1cccc2c1C(=O)c1c(O)c3c(c(O)c1C2=O)C[C@@](O)(C(C)=O)C[C@@H]3OC1CC(N)C(O)C(C)O1 (stereo not given in full)
inactive: endpoint: median survival time, dose: 0.4 mg/kg/injection, schedule: Q02DX030 (ip), vehicle: saline, higher = longer survival 95 % of control | endpoint: median survival time, dose: 0.4 mg/kg/injection, schedule: Q04DX006 (ip), vehicle: saline, higher = longer survival 106 % of control | endpoint: median survival time, dose: 0.8 mg/kg/injection, schedule: Q02DX030 (ip), vehicle: saline, higher = longer survival 122 % of control | endpoint: median survival time, dose: 1.6 mg/kg/injection, schedule: Q02DX030 (ip), vehicle: saline, higher = longer survival 104 % of control

CN(C)S(=O)(=O)c1ccc(CCCCc2ccc(N3C(N)=NC(N)=NC3(C)C)cc2Cl)c(Cl)c1
inactive: endpoint: median survival time, dose: 38.0 mg/kg/injection, schedule: Q01DX009 (ip), vehicle: saline with Tween-80, higher = longer survival 100 % of control

Cc1c2oc3c(C)ccc(C(=O)N[C@@H]4C(=O)N[C@H](C(C)C)C(=O)N5CCC[C@H]5C(=O)N(C)CC(=O)N(C)[C@@H](C(C)C)C(=O)O[C@H]4C)c3nc-2c(C(=O)N[C@@H]2C(=O)N[C@H](C(C)C)C(=O)N3CCC[C@H]3C(=O)N(C)CC(=O)N(C)[C@@H](C(C)C)C(=O)O[C@H]2C)c(N)c1=O (I: [aThr][dV]P[Sar][NMeV] / II: [aThr][dV]P[Sar][NMeV]; ester I:1-I:C, II:1-II:C; linker I:N-II:N via Actinocin(9to1))
83 % of control: endpoint: median tumor weight (est.), dose: 21.6 micrograms/kg/injection, schedule: Q02DX011 (ip), vehicle: saline, higher = larger tumour
66 % of control: endpoint: median tumor weight (est.), dose: 13.0 micrograms/kg/injection, schedule: Q02DX011 (ip), vehicle: saline, higher = larger tumour
78 % of control: endpoint: median tumor weight (est.), dose: 4.7 micrograms/kg/injection, schedule: Q02DX011 (ip), vehicle: saline, higher = larger tumour | endpoint: median tumor weight (est.), dose: 60.0 micrograms/kg/injection, schedule: Q02DX011 (ip), vehicle: saline, higher = larger tumour
109 % of control: endpoint: median tumor weight (est.), dose: 7.8 micrograms/kg/injection, schedule: Q02DX011 (ip), vehicle: saline, higher = larger tumour
51 % of control: endpoint: median tumor weight (est.), dose: 100.0 micrograms/kg/injection, schedule: Q02DX011 (ip), vehicle: saline, higher = larger tumour
inactive: endpoint: median survival time, dose: 0.01 mg/kg/injection, schedule: Q04DX006 (ip), vehicle: saline, higher = longer survival 102 % of control | endpoint: median survival time, dose: 0.03 mg/kg/injection, schedule: Q04DX006 (ip), vehicle: saline, higher = longer survival 95 % of control | endpoint: median survival time, dose: 0.06 mg/kg/injection, schedule: Q04DX006 (ip), vehicle: saline, higher = longer survival 102 % of control | endpoint: median survival time, dose: 0.12 mg/kg/injection, schedule: Q04DX006 (ip), vehicle: saline, higher = longer survival 102 % of control
59 % of control: endpoint: median tumor weight (est.), dose: 36.0 micrograms/kg/injection, schedule: Q02DX011 (ip), vehicle: saline, higher = larger tumour

CC1(C)N=C(N)N=C(N)N1c1ccc(CCCCc2ccc(S(=O)(=O)F)cc2Cl)c(Cl)c1
inactive: endpoint: median survival time, dose: 1.8 mg/kg/injection, schedule: Q01DX005 (iv), vehicle: other, higher = longer survival 97 % of control | endpoint: median survival time, dose: 3.7 mg/kg/injection, schedule: Q01DX001 (iv), vehicle: other, higher = longer survival 107 % of control | endpoint: median survival time, dose: 3.7 mg/kg/injection, schedule: Q01DX005 (iv), vehicle: other, higher = longer survival 97 % of control | endpoint: median survival time, dose: 7.5 mg/kg/injection, schedule: Q01DX001 (iv), vehicle: other, higher = longer survival 91 % of control | endpoint: median survival time, dose: 7.5 mg/kg/injection, schedule: Q01DX005 (iv), vehicle: other, higher = longer survival 114 % of control | endpoint: median survival time, dose: 15.0 mg/kg/injection, schedule: Q01DX001 (ip), vehicle: other, higher = longer survival 110 % of control | endpoint: median survival time, dose: 15.0 mg/kg/injection, schedule: Q01DX005 (ip), vehicle: other, higher = longer survival 124 % of control | endpoint: median survival time, dose: 15.0 mg/kg/injection, schedule: Q01DX009 (oral), vehicle: other, higher = longer survival 89 % of control | endpoint: median survival time, dose: 30.0 mg/kg/injection, schedule: Q01DX001 (ip), vehicle: other, higher = longer survival 103 % of control | endpoint: median survival time, dose: 30.0 mg/kg/injection, schedule: Q01DX001 (oral), vehicle: other, higher = longer survival 110 % of control | endpoint: median survival time, dose: 30.0 mg/kg/injection, schedule: Q01DX005 (oral), vehicle: other, higher = longer survival 97 % of control | endpoint: median survival time, dose: 30.0 mg/kg/injection, schedule: Q01DX009 (oral), vehicle: other, higher = longer survival 120 % of control | endpoint: median survival time, dose: 60.0 mg/kg/injection, schedule: Q01DX001 (ip), vehicle: other, higher = longer survival 111 % of control | endpoint: median survival time, dose: 60.0 mg/kg/injection, schedule: Q01DX001 (oral), vehicle: other, higher = longer survival 97 % of control | endpoint: median survival time, dose: 60.0 mg/kg/injection, schedule: Q01DX005 (oral), vehicle: other, higher = longer survival 117 % of control | endpoint: median survival time, dose: 60.0 mg/kg/injection, schedule: Q01DX009 (oral), vehicle: other, higher = longer survival 114 % of control | endpoint: median survival time, dose: 120.0 mg/kg/injection, schedule: Q01DX001 (oral), vehicle: other, higher = longer survival 97 % of control | endpoint: median survival time, dose: 120.0 mg/kg/injection, schedule: Q01DX005 (oral), vehicle: other, higher = longer survival 116 % of control | endpoint: median survival time, dose: 120.0 mg/kg/injection, schedule: Q01DX009 (oral), vehicle: other, higher = longer survival 104 % of control | endpoint: median survival time, dose: 240.0 mg/kg/injection, schedule: Q01DX001 (ip), vehicle: other, higher = longer survival 123 % of control | endpoint: median survival time, dose: 240.0 mg/kg/injection, schedule: Q01DX001 (oral), vehicle: other, higher = longer survival 109 % of control | endpoint: median survival time, dose: 240.0 mg/kg/injection, schedule: Q01DX005 (oral), vehicle: other, higher = longer survival 117 % of control | endpoint: median survival time, dose: 240.0 mg/kg/injection, schedule: Q01DX009 (oral), vehicle: other, higher = longer survival 110 % of control | endpoint: median survival time, dose: 480.0 mg/kg/injection, schedule: Q01DX001 (oral), vehicle: other, higher = longer survival 100 % of control | endpoint: median survival time, dose: 480.0 mg/kg/injection, schedule: Q01DX005 (oral), vehicle: other, higher = longer survival 109 % of control | endpoint: median survival time, dose: 480.0 mg/kg/injection, schedule: Q01DX009 (oral), vehicle: other, higher = longer survival 124 % of control
active: endpoint: median survival time, dose: 5.18 mg/kg/injection, schedule: Q01DX009 (ip), vehicle: other, higher = longer survival 162 % of control | endpoint: median survival time, dose: 5.4 mg/kg/injection, schedule: Q01DX009 (ip), vehicle: other, higher = longer survival 151 % of control | endpoint: median survival time, dose: 8.0 mg/kg/injection, schedule: Q01DX009 (ip), vehicle: other, higher = longer survival 151 % of control | endpoint: median survival time, dose: 8.64 mg/kg/injection, schedule: Q01DX009 (ip), vehicle: other, higher = longer survival 176 % of control | endpoint: median survival time, dose: 10.0 mg/kg/injection, schedule: Q01DX009 (ip), vehicle: saline with Tween-80, higher = longer survival 150 % of control | endpoint: median survival time, dose: 14.4 mg/kg/injection, schedule: Q01DX009 (ip), vehicle: other, higher = longer survival 190 % of control | endpoint: median survival time, dose: 20.0 mg/kg/injection, schedule: Q01DX009 (ip), vehicle: other, higher = longer survival 155 % of control | endpoint: median survival time, dose: 20.0 mg/kg/injection, schedule: Q01DX009 (ip), vehicle: saline with Tween-80, higher = longer survival 177 % of control | endpoint: median survival time, dose: 27.0 mg/kg/injection, schedule: Q01DX009 (ip), vehicle: saline with Tween-80, higher = longer survival 168 % of control | endpoint: median survival time, dose: 30.0 mg/kg/injection, schedule: Q01DX009 (ip), vehicle: other, higher = longer survival 169 % of control | endpoint: median survival time, dose: 40.0 mg/kg/injection, schedule: Q01DX009 (ip), vehicle: saline with Tween-80, higher = longer survival 163 % of control and 217 % of control and 232 % of control | endpoint: median survival time, dose: 60.0 mg/kg/injection, schedule: Q01DX009 (ip), vehicle: saline with Tween-80, higher = longer survival 204 % of control and 239 % of control | endpoint: median survival time, dose: 62.0 mg/kg/injection, schedule: Q01DX009 (ip), vehicle: saline with Tween-80, higher = longer survival 255 % of control | endpoint: median survival time, dose: 89.0 mg/kg/injection, schedule: Q01DX009 (ip), vehicle: saline with Tween-80, higher = longer survival 224 % of control

COc1cc(COC(=O)Nc2ccccc2F)cc(OC)c1OC
98 % of control: endpoint: median tumor weight (est.), dose: 200.0 mg/kg/injection, schedule: Q01DX009 (ip), vehicle: saline with Tween-80, higher = larger tumour
111 % of control: endpoint: median tumor weight (est.), dose: 100.0 mg/kg/injection, schedule: Q01DX009 (ip), vehicle: saline with Tween-80, higher = larger tumour
99 % of control: endpoint: median tumor weight (est.), dose: 50.0 mg/kg/injection, schedule: Q01DX009 (ip), vehicle: saline with Tween-80, higher = larger tumour
inactive: endpoint: median survival time, dose: 50.0 mg/kg/injection, schedule: Q01DX009 (ip), vehicle: saline with Tween-80, higher = longer survival 100 % of control | endpoint: median survival time, dose: 100.0 mg/kg/injection, schedule: Q01DX009 (ip), vehicle: saline with Tween-80, higher = longer survival 103 % of control | endpoint: median survival time, dose: 200.0 mg/kg/injection, schedule: Q01DX009 (ip), vehicle: saline with Tween-80, higher = longer survival 94 % of control

COc1cc2c[n+](C)c3c4cc5c(cc4ccc3c2cc1OC)OCO5
56 % of control: endpoint: median tumor weight (est.), dose: 20.0 mg/kg/injection, schedule: Q02DX011 (ip), vehicle: Klucel (hydroxypropylcellulose) (HPC), higher = larger tumour
91 % of control: endpoint: median tumor weight (est.), dose: 10.0 mg/kg/injection, schedule: Q02DX011 (ip), vehicle: Klucel (hydroxypropylcellulose) (HPC), higher = larger tumour
73 % of control: endpoint: mean tumor weight, dose: 10.0 mg/kg/injection, schedule: Q02DX011 (ip), vehicle: Klucel (hydroxypropylcellulose) (HPC), higher = larger tumour

— PubChem BioAssay AID288 (DTP/NCI, 2004)
